Drawing on US8906944B2, “Compounds as tyrosine kinase modulators” (Allergan, Inc., priority 2009, dated 2014), this text covers IC50 for ten molecules.

Molecules are shown by their SMILES.

In the first assay the target is T1, human VEGF receptor (VEGFR-2) (Homo sapiens, UniProt P35968).
T1 construct: The cytoplasmic domain of the human VEGF receptor (VEGFR-2) was expressed; His; made in house; host or cells: insect cells (baculovirus)
T1 sequence (P35968 786-1356 limits assumed): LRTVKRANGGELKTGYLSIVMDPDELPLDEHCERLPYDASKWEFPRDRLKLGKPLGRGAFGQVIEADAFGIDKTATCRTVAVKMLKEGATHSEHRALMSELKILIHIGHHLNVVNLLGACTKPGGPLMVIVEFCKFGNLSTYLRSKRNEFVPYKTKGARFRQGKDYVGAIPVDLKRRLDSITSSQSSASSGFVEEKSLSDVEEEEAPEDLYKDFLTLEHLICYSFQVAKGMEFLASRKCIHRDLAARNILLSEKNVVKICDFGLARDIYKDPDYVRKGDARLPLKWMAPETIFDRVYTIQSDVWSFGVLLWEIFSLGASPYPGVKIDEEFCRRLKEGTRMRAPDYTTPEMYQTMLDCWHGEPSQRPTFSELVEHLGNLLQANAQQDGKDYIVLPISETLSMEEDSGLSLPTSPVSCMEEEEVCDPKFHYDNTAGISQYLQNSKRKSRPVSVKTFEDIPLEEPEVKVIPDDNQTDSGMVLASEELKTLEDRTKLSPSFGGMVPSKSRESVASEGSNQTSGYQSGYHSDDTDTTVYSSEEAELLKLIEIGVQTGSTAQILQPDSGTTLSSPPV
In words: VEGFR2 kinase assay. The note with it: His-VEGFR-2 cytoplasmic domain, 3.6 μM ATP; Table IV, amide or urea linker; read-out: VEGFR2 Enzyme IC50. The class given is biochemical. The method, then:
The cytoplasmic domain of the human VEGF receptor (VEGFR-2) was expressed as a Histidine-tagged fusion protein following infection of insect cells using an H is engineered baculovirus. […] Kinase assays were performed in 96 well microtiter plates that were coated overnight with 30 µg of poly-Glu-Tyr (4:1) in 10 mM Phosphate Buffered Saline (PBS), pH 7.2-7.4. The plates were incubated with 1% BSA and then washed four times with PBS prior to starting the reaction. Reactions were carried out in 120 µL reaction volumes containing 3.6 µM ATP in kinase buffer (50 mM Hepes buffer pH 7.4, 20 mM MgCl2, 0.1 mM MnCl2 and 0.2 mM Na3 VO4). […] Reactions were initiated by the addition 0.5 ng of purified protein. Following a ten minute incubation at 25 degree. […] IC50 values for compound inhibition were calculated directly from graphs of optical density (arbitrary units) versus compound concentration following subtraction of blank values.
Regarding `Cc1ccc(F)c(NC(=O)Nc2ccc(Oc3ccnc(-c4cc(C(=O)NCCCC(=O)NN)c[nH]4)c3)cc2)c1` [Example 177, 5-{4-[4-({[(2-fluoro-5-methylphenyl)amino]carbonyl}amino)phenoxy]pyridin-2-yl}-N-(4-hydrazino-4-oxobutyl)-1H-pyrrole-3-carboxamide], the IC50 (as a rule, the concentration at which inhibition is half-maximal) was 15 nM.
On to `COC(=O)CN(CCCNC(=O)c1c[nH]c(-c2cc(Oc3cc(C(=O)Nc4cc(C)ccc4F)ccc3F)ccn2)c1)CC(=O)OC` [Example 178, dimethyl 2,2′-({3-[({5-[4-(2-fluoro-5-{[(2-fluoro-5-methylphenyl)amino]carbonyl}phenoxy)pyridin-2-yl]-1H-pyrrol-3-yl}carbonyl)amino]propyl}imino)diacetate], for which the IC50 worked out at 24 nM.
Regarding `COC(=O)CN(CCNC(=O)c1c[nH]c(-c2cc(Oc3cc(C(=O)Nc4cc(C)ccc4F)ccc3F)ccn2)c1)CC(=O)OC` [Example 179, dimethyl 2,2′-({2-[({5-[4-(2-fluoro-5-{[(2-fluoro-5-methylphenyl)amino]carbonyl}phenoxy)pyridin-2-yl]-1H-pyrrol-3-yl}carbonyl)amino]ethyl}imino)diacetate], the IC50 was found to be 21 nM.
As to `Cc1cccc(NC(=O)Nc2ccc(Oc3ccnc(-c4cc(C(=O)OCC(CO)(CO)CO)c[nH]4)c3)cc2)c1` [Example 240, 3-hydroxy-2,2-bis(hydroxymethyl)propyl 5-{4-[4-({[(3-methylphenyl)amino]carbonyl}amino)phenoxy]pyridin-2-yl}-1H-pyrrole-3-carboxylate], the IC50 stood at 7 nM.
In the case of `CCNC(=O)[C@H](CCC(=O)OC(C)(C)C)NC(=O)c1c[nH]c(-c2cc(Oc3cccc(NC(=O)c4occc4C)c3)ccn2)c1` [Example 265, tert-butyl 5-(ethylamino)-4-({[5-(4-{3-[(3-methyl-2-furoyl)amino]phenoxyl}pyridin-2-yl)-1H-pyrrol-3-yl]carbonyl}amino)-5-oxopentanoate], the IC50 came out at 18 nM.
In the case of `Cc1ccoc1C(=O)Nc1cccc(Oc2ccnc(-c3cc(C(=O)N[C@@H](CCC(=O)OC(C)(C)C)C(=O)O)c[nH]3)c2)c1` [Example 266, 5-tert-butoxy-2-({[5-(4-{3-[(3-methyl-2-furoyl)amino]phenoxy}pyridin-2-yl)-1H-pyrrol-3-yl]carbonyl}amino)-5-oxopentanoic acid], the IC50 was 31 nM.
For the molecule `Cc1ccc(F)c(NC(=O)Nc2ccc(Oc3ccnc(-c4cc(C(=O)NCCCN5CCC(C(=O)O)C5)c[nH]4)c3)cc2)c1` (stereo not drawn) [Example 268, 1-(3-{[(5-{4-[4-({[(2-fluoro-5-methylphenyl)amino]carbonyl}amino)phenoxy]pyridin-2-yl}-1H-pyrrol-3-yl)carbonyl]amino}propyl)pyrrolidine-3-carboxylic acid], the 50% inhibitory concentration (IC50) was 15 nM.
Take `Cc1ccc(F)c(NC(=O)Nc2ccc(Oc3ccnc(-c4cc(C(=O)NCCCN5CCC(O)CC5)c[nH]4)c3)cc2)c1` [Example 272, 5-{4-[4-({[(2-fluoro-5-methylphenyl)amino]carbonyl}amino)phenoxy]pyridin-2-yl}-N-[3-(4-hydroxypiperidin-1-yl)propyl]-1H-pyrrole-3-carboxamide]: the IC50 came out at 19 nM.
Take `Cc1cccc(NC(=O)c2ccc(F)c(Oc3ccnc(-c4cc(C(=O)NCCC(=O)O)c[nH]4)c3)c2)c1` [Example 275, 3-[({5-[4-(2-fluoro-5-{[(3-methylphenyl)amino]carbonyl}phenoxy)pyridin-2-yl]-1H-pyrrol-3-yl}carbonyl)amino]propanoic acid]: the IC50 came out at 19 nM.
The same measure, in the same setting: next, `COC(=O)CCNC(=O)c1c[nH]c(-c2cc(Oc3cc(C(=O)Nc4cccc(C)c4)ccc3F)ccn2)c1` [Example 277, methyl 3-[({5-[4-(2-fluoro-5-{[(3-methylphenyl)amino]carbonyl}phenoxy)pyridin-2-yl]-1H-pyrrol-3-yl}carbonyl)amino]propanoate]: 13 nM.

Another assay deals with VEGFR1 (Homo sapiens, UniProt P17948). Put plainly: VEGFR1 enzyme assay. The class given is biochemical. To be noted: Table IV, amide or urea linker.
Chain of VEGFR1 (P17948 27-1338, species assumed): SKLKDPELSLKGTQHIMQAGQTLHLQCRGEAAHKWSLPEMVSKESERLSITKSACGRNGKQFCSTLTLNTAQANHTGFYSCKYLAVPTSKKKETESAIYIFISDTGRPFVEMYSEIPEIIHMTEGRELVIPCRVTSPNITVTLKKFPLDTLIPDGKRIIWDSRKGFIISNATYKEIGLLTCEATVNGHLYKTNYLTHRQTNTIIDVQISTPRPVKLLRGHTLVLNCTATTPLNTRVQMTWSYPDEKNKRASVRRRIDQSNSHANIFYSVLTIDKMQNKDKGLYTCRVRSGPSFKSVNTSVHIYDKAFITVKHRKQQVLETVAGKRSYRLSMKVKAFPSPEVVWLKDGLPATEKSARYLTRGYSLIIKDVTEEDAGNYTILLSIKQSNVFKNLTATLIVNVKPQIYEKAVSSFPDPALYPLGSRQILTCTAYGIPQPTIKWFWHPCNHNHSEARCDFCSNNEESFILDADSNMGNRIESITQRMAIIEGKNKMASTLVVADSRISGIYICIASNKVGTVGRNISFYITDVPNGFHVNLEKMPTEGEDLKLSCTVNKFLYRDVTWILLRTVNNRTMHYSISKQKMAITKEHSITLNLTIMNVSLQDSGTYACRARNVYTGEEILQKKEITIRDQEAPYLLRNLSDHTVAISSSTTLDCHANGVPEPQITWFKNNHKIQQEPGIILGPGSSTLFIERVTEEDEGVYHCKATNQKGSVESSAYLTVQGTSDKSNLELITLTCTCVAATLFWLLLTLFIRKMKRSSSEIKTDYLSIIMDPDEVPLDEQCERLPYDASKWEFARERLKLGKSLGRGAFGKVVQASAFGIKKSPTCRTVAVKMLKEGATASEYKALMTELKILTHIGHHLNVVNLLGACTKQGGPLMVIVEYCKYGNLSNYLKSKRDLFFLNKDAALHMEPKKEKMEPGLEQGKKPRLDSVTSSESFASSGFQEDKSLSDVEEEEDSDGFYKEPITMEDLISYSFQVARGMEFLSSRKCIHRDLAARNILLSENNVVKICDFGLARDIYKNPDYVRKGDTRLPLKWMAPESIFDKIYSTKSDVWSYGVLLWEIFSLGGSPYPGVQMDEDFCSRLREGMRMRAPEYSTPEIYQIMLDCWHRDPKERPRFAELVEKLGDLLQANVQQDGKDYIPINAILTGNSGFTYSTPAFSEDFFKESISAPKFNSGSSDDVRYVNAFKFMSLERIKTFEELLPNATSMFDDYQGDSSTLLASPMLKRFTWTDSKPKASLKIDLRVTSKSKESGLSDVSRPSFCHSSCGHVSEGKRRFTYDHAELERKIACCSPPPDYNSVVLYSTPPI
For `COC(=O)CN(CCCNC(=O)c1c[nH]c(-c2cc(Oc3cc(C(=O)Nc4cc(C)ccc4F)ccc3F)ccn2)c1)CC(=O)OC` [Example 178, dimethyl 2,2′-({3-[({5-[4-(2-fluoro-5-{[(2-fluoro-5-methylphenyl)amino]carbonyl}phenoxy)pyridin-2-yl]-1H-pyrrol-3-yl}carbonyl)amino]propyl}imino)diacetate], the concentration for half-maximal inhibition (IC50) was 60 nM.
Still for that read-out and setting: next, `COC(=O)CN(CCNC(=O)c1c[nH]c(-c2cc(Oc3cc(C(=O)Nc4cc(C)ccc4F)ccc3F)ccn2)c1)CC(=O)OC` [Example 179, dimethyl 2,2′-({2-[({5-[4-(2-fluoro-5-{[(2-fluoro-5-methylphenyl)amino]carbonyl}phenoxy)pyridin-2-yl]-1H-pyrrol-3-yl}carbonyl)amino]ethyl}imino)diacetate]: 50 nM.
